Assay results from article PMC6216040, “Repurposing of an old drug: In vitro and in vivo efficacies of buparvaquone against Echinococcus multilocularis” (International Journal for Parasitology: Drugs and Drug …, 2018).
Read-outs that look alike come from different tables or passages of the source.

Assays:
[1] = tested on: E. multilocularis metacestodes; conditions: cited from earlier work; for effect in vitro against E. multilocularis metacestodes: ref Reuter et al.
[2] = tested on: E. multilocularis metacestodes; experiment: PGI-assay: drug-induced damage on in vitro cultured metacestodes (Pathogen Box screening cascade and EC50); assay type: cell-based, Echinococcus multilocularis; conditions: for PGI release, % of Tx-100 control, average, 5d / PGI release, % of Tx-100 control, average, 12d: 1 µM; for activity in the screen at 10 μM (confirmed in triplicates, >20% relative PGI release): 5 and 12 days; for cytotoxicity at 10 µM / PGI release, % of Tx-100 control at 10 µM: Echinococcus multilocularis; for cytotoxicity at 10 µM / PGI release, % of the Tx-100 control, 5d / PGI release, % of the Tx-100 control, 12d: singlets, 10 µM; for PGI release, % of Tx-100 control at 10 µM: confirmatory screening at 10 µM in triplicates, values as % of Tx-100 control; for activity in the screen at 10 μM (confirmed in triplicates, >20% relative PGI release) / activity in the present in vitro screen (threshold 20% relative activity compared to Tx-100): 10 μM
[3] = tested on: E. multilocularis metacestodes; experiment: BPQ treatment of E. multilocularis infected mice; assay type: in vivo, Balb/c mice
Description: Balb/c mice, 6 weeks old, were purchased from Charles River Laboratories (Sulzheim, Germany) and used for in vivo experiments when they were 8 weeks old and weighted approximately 20 g. The mice were housed in a type 3 cage containing enrichment in the form of a cardboard house and paper and woodchip bedding with a maximum of seven mice per cage. […] Food and water was provided ad libitum. Experimentally infected mice were treated with BPQ to elucidate the efficacy of the drug in vivo. To infect mice, in vitro grown E. multilocularis metacestodes (isolate […]) were washed in PBS, were mechanically destroyed by pipetting and the resulting suspension was centrifuged for 5 min at 500 g. The parasite tissue was then taken up in an equal volume of PBS. Each mouse was subsequently infected intraperitoneally (i.p.) with 200 μl of this suspension. […] infected mice were randomly distributed into 3 treatment groups (8 animals per group) with 4 animals per cage. […] Treatments of mice started 2 weeks post-infection and lasted for 4 weeks, with consecutive treatment of mice for 5 days per week, followed by an interruption of treatment for 2 days for recovery. All treatments were administered by oral gavage in a volume of 50 μl, with ABZ and BPQ being suspended in corn oil. After four weeks, all mice were anesthetized with isoflurane and subsequently euthanized by CO2. The parasitic tissue from each mouse was completely resected and weighed. The mass of the resected parasitic tissue was used for statistical analyses of the experiment. […] The significance level was set to p < 0.05. Figures were prepared in R and Adobe Illustrator 2015.1.0.

[4] = triplicates, 5 days of incubation
[5] = triplicates, 12 days of incubation
[6] = 120 h, 5 days of incubation, read-out: PGI release, % of the Tx-100 control, 5d
[7] = 120 h, 5 days of incubation, read-out: PGI release, % of Tx-100 control, average, 5d
[8] = 288 h, 12 days of incubation, read-out: PGI release, % of the Tx-100 control, 12d
[9] = 288 h, 12 days of incubation, read-out: PGI release, % of Tx-100 control, average, 12d

| Molecule | PGI release, % of the Tx-100 control, 5d ([2]; 5 days of incubation) | PGI release, % of the Tx-100 control, 12d ([2]; 12 days of incubation) | also measured |
| --- | --- | --- | --- |
| OC(c1cc(C(F)(F)F)nc2c(C(F)(F)F)cccc12)C1CCCCN1 (stereo not drawn) [MMV000016, Mefloquine, reference compound] |  |  | IC50 ([1]; ref Stadelmann et al., 2011, Küster et al., 2011, 2015, Rufener et al., 2018, read-out: IC50 value against this parasite in vitro): > 30 µM; PGI release, % of Tx-100 control, average, 5d [2, 4]: 0.24%; PGI release, % of Tx-100 control, average, 12d [2, 5]: 8.91%; activity in the screen at 10 μM (confirmed in triplicates, >20% relative PGI release) [2]: active; activity in the screen at 10 μM (confirmed in triplicates, >20% relative PGI release) ([2]; listed as Mefloquine): identified in our screening; cytotoxicity at 10 µM [2, 6]: 16.9%; PGI release, % of Tx-100 control at 10 µM [2, 7]: 7.4%; cytotoxicity at 10 µM [2, 8]: 23.3%; PGI release, % of Tx-100 control at 10 µM [2, 9]: 47.4% |
| C[C@@H]1[C@H](O)[C@@H](C)/C=C/C=C/C=C/C=C/C=C/C=C/C=C/[C@H](O[C@@H]2O[C@H](C)[C@@H](O)[C@H](N)[C@@H]2O)C[C@@H]2O[C@](O)(C[C@@H](O)C[C@@H](O)[C@H](O)CC[C@@H](O)C[C@@H](O)CC(=O)O[C@H]1C)C[C@H](O)[C@H]2C(=O)O [MMV689000, Amphotericin B, reference compound] |  |  | concentration shown to destroy metacestodes in vitro ([1]; ref Reuter et al., 2003, 2010): 2.7 µM; cytotoxicity at 10 µM [2, 6]: 34.2%; PGI release, % of Tx-100 control at 10 µM [2, 7]: -1.34%; cytotoxicity at 10 µM [2, 8]: 51.2%; PGI release, % of Tx-100 control at 10 µM [2, 9]: 2.75% |
| CC(=O)Oc1ccccc1C(=O)Nc1ncc([N+](=O)[O-])s1 [MMV688991, Nitazoxanide, reference compound] |  |  | concentration shown to be active in vitro against metacestodes ([1]; ref Stettler et al., 2003, Reuter et al., 2006): 3.3 µM; activity against metacestodes at 1 μM ([2]; 1 μM, triplicates): did not maintain its activity; PGI release, % of Tx-100 control, average, 5d [2, 4]: 1.35%; PGI release, % of Tx-100 control, average, 12d [2, 5]: 11.08%; activity in the screen at 10 μM (confirmed in triplicates, >20% relative PGI release) [2]: active; cytotoxicity at 10 µM [2, 6]: 57.7%; PGI release, % of Tx-100 control at 10 µM [2, 7]: 54.7%; cytotoxicity at 10 µM [2, 8]: 75.5%; PGI release, % of Tx-100 control at 10 µM [2, 9]: 71.7% |
| COC(=O)Nc1nc2ccc(C(=O)c3ccccc3)cc2[nH]1 [MMV003152, Mebendazole, reference compound] |  |  | concentration inhibiting parasite proliferation ([1]; three weeks treatment, ref Jura et al., 1998): 1 µM; cytotoxicity at 10 µM [2, 6]: 1.28%; cytotoxicity at 10 µM [2, 8]: 11.9% |
| CCCCCCCCCCCCCCCCOP(=O)([O-])OCC[N+](C)(C)C [MMV688990, Miltefosine, reference compound] |  |  | effect in vitro against E. multilocularis metacestodes [1]; 2006: ineffective; activity in the present in vitro screen (threshold 20% relative activity compared to Tx-100) [2]: inactive; cytotoxicity at 10 µM [2, 6]: -1.11%; cytotoxicity at 10 µM [2, 8]: -5.17% |
| CO[C@H]1/C=C/O[C@@]2(C)Oc3c(C)c(O)c4c(O)c(c(/C=N/N5CCN(C)CC5)c(O)c4c3C2=O)NC(=O)/C(C)=C\C=C\[C@H](C)[C@H](O)[C@@H](C)[C@@H](O)[C@@H](C)[C@H](OC(C)=O)[C@@H]1C [MMV688775, Rifampicin, reference compound] |  |  | effect in vitro against E. multilocularis metacestodes [1]; 2006: ineffective; activity in the present in vitro screen (threshold 20% relative activity compared to Tx-100) [2]: inactive; cytotoxicity at 10 µM [2, 6]: -0.7%; cytotoxicity at 10 µM [2, 8]: -1.35% |
| CCCSc1ccc2nc(NC(=O)OC)[nH]c2c1 [ABZ, albendazole] |  |  | parasite burden compared to the control ([3]; p.o. in corn oil, 5 days per week, 4 weeks, BPQ 100 mg/kg, ABZ 200 mg/kg): significant reduction; adverse effects due to treatment ([3]; whole course of treatment, 4 weeks p.o.): None of the mice showed signs of adverse effects |
| COc1ccc(-c2cnc3ccc(N4CCCC4)nn23)cc1OC [MMV023985] | -0.66% | -1.01% |  |
| Cc1cc(C2=NOC(c3cc(Cl)c(F)c(Cl)c3)(C(F)(F)F)C2)ccc1C(=O)NCc1ccc2c(c1)C(C)(C)OB2O (stereo not drawn) [MMV687776] | 0.60% | 2.49% |  |
| Nc1ncc(-c2cn[nH]c2)cc1-c1nc2cc(Cl)cnc2[nH]1 [MMV023370] | -2.33% | -3.72% |  |
| Nc1ncnc2n[nH]c(Cc3cccc4ccccc34)c12 [MMV688469] | -0.61% | -1.22% |  |
| CC1CCCCN1C(=O)NCCc1coc(-c2ccc(F)cc2)n1 (stereo not drawn) [MMV688797] | -3.70% | -1.62% |  |
| COc1ccc2nccc(NC(=O)C3CCN(CCc4ccc(Cl)cc4)CC3)c2n1 [MMV688844] | -0.25% | -3.99% |  |
| CC(C(=O)Nc1ccc2oc(-c3ccncc3)nc2c1)c1ccccc1 (stereo not drawn) [MMV688471] | -1.25% | 5.56% |  |
| O=S(=O)(c1ccc(Cl)cc1)N1CCN(C(=S)NCc2ccco2)CC1 [MMV000858] | -0.26% | 2.40% |  |
| Nc1cccnc1Nc1ccc(Cl)cc1 [MMV676524] | 0.13% | 0.29% |  |
| O=C1COCc2ccc(Br)cc2N1Cc1ccc(C(F)(F)F)cc1 [MMV032995] | 0.37% | 1.79% |  |

| Molecule | PGI release, % of the Tx-100 control, 5d ([2]; 5 days of incubation) | PGI release, % of the Tx-100 control, 12d ([2]; 12 days of incubation) | also measured |
| --- | --- | --- | --- |
| OC[C@H]1O[C@@H](n2c3ccc(Cl)cc3c3c(-c4cc5ccccc5o4)ncnc32)C(O)[C@H]1O (stereo partly drawn) [MMV688921] | -1.03% | 0.48% |  |
| Cc1ccccc1CN1CCC(O)(c2ccc(Cl)c(C(F)(F)F)c2)CC1 [MMV688846] | 6.92% | 5.57% |  |
| C[C@]1(COc2ccc(N3CCC(Oc4ccc(OC(F)(F)F)cc4)CC3)cc2)Cn2cc([N+](=O)[O-])nc2O1 [MMV688262, Delaminid, reference compound] | -3.74% | -0.38% |  |
| N#CCN(CCCCN1CCN(c2ccc(F)cc2)CC1)C(=O)OCc1ccccc1 [MMV675997] | -0.27% | -1.46% |  |
| Levofloxacin (-)-ofloxacin [MMV687798, reference compound] | -0.0541% | -0.33% |  |
| CCOc1ccc2cc(-c3nn(CC4CCN(C)CC4)c4ncnc(N)c34)ccc2c1 [MMV688854] | -0.71% | 0.93% |  |
| CC(=O)Nc1ccc(NC(=O)c2cc(-c3cc(Cl)ccc3O)n[nH]2)cc1 [MMV676380] | -0.62% | -0.39% |  |
| CC(C)(C)c1cc(C(=O)N2CCN(c3nccnc3C#N)CC2)n(Cc2ccccc2)n1 [MMV023949] | -0.59% | -1.14% |  |
| CN(C)CCNC(=O)N1CCCN(c2ncnc3cc(-c4ccccc4)sc23)CC1 [MMV024195] | 1.72% | 5.34% |  |
| Cc1ncc(-c2ccnc(Nc3ccc(S(C)(=O)=O)cc3)n2)n1C(C)C [MMV676604] | -0.0262% | 0.36% |  |
| Cc1c[nH]c(CCNC(=O)c2cc(-c3ccc(Cl)cc3)cs2)n1 [MMV676350] | -0.41% | 1.56% |  |
| CN1CCN(c2nccc3nc(-c4ccc(F)c(F)c4)[nH]c23)CC1 [MMV676260] | 0.28% | 0.56% |  |
| c1ccc(Oc2ccc(-c3cncc(-c4ccc5[nH]ccc5c4)n3)cc2)cc1 [MMV688178] | 0.34% | 0.47% |  |
| CCc1ccc(C(NCc2nc(N)nc(N(C)C)n2)C(C)C)cc1 (stereo not drawn) [MMV1019989] | 0.39% | -3.04% |  |
| CC(=O)N(CCN(C(=O)c1ccc(F)cc1)c1ccccc1)c1ccccc1 [MMV676064] | -0.20% | 0.0545% |  |
| CCC(=O)Nc1ccccc1C(=O)Nc1ccccn1 [MMV202553] | -0.91% | 0.26% |  |
| COc1cccc2c(C)nc(N=C(N)N)nc12 [MMV000907] | -2.91% | 1.72% |  |
